Measured values taken from patent US9850283B2, “Macrocyclic inhibitors of the PD-1/PD-L1 and CD80(B7-1)/PD-L1 protein/protein interactions” (BRISTOL-MYERS SQUIBB COMPANY, priority 2013, dated 2017).
Read-outs that look alike come from different tables or passages of the source. Positions of bridges follow the written chain, without caps; N, C: chain ends. Non-standard residues stand in square brackets, D forms with d. Residues, ends and D or L forms follow the SMILES beside them. Phe(3,4,5-F3) = N[C@@H](Cc1cc(F)c(F)c(F)c1)C(=O)O; 1Nal = N[C@@H](Cc1cccc2ccccc12)C(=O)O; d(cisHyp) = O=C(O)[C@H]1C[C@@H](O)CN1; Hyp = O=C(O)[C@@H]1C[C@@H](O)CN1; NMeF = CN[C@@H](Cc1ccccc1)C(=O)O; NMeE = CN[C@@H](CCC(=O)O)C(=O)O; NMeNle = CCCC[C@H](NC)C(=O)O; NMeA = CN[C@@H](C)C(=O)O; Sar = CNCC(=O)O

Assays:
[1] = target: T1, LK35.2-hPD-L1 cells / PE-labeled PD-1-Ig (Homo sapiens, UniProt Q9NZQ7); experiment: LK35.2-hPD-L1 cell binding high-content screening assay; assay type: cell-based; settings: cluster symbol, read-out: CBA IC50 cluster
T1 construct: expressed in transfected cells; host or cells: LK35.2 mouse B cell line
T1 sequence (Q9NZQ7 19-290): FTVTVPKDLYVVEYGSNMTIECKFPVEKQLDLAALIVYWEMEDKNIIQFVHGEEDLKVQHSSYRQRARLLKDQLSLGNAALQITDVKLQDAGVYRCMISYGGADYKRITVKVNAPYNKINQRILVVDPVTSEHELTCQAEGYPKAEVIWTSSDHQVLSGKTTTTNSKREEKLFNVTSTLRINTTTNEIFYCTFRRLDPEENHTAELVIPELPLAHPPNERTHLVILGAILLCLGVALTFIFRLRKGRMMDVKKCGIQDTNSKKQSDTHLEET
Method in brief: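 Readout: high-content imaging of PE-PD-1-Ig bound to LK35.2-hPD-L1 cells. Cells plated overnight (RPMI/10% FCS); compound + 1 nM PE-PD-1-Ig, 1 h, 37 °C; 3× dPBS wash before imaging.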

Human PD-L1/PD-1 = target: T2, Human PD-L1/PD-1 (Homo sapiens, UniProt Q9NZQ7); experiment: HTRF PD-1-Ig/PD-L1-His binding assay (human PD-L1); settings: cluster symbol; read-out: HTRF IC50 cluster
T2 construct: made in house; host or cells: HEK293T
T2 sequence (Q9NZQ7 with tags, fused parts or gaps): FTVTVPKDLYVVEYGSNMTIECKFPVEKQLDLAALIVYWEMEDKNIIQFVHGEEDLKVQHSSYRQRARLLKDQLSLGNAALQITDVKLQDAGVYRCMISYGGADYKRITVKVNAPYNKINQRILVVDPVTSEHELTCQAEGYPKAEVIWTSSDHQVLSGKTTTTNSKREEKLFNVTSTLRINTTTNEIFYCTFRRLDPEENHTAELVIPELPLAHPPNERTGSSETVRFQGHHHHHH
Method in brief: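 Steps: truncated PD-1-Ig and PD-L1-His fusions are incubated in dPBS containing 0.1% (w/v) BSA and 0.05% (v/v) Tween-20. Detection antibodies are then added (Eu cryptate anti-Ig at 1 nM final, APC anti-His at 20 nM final), and time-resolved FRET is measured.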

[2] = cell line of CBA not given (LK35.2-hPD-L1 or 293T-hPD-L1)
[3] = cell binding assay, cell line not given

Row | SMILES | IC50 [1, 2] [nM] | IC50 (Human PD-L1/PD-1) [nM] | IC50 [1, 3] [nM]
1 | CC(C)C[C@@H]1NC(=O)[C@H](Cc2c[nH]cn2)NC(=O)[C@@H]2CCCN2C(=O)[C@H](CC(N)=O)NC(=O)[C@H](C)N(C)C(=O)[C@H](Cc2ccccc2)NC(=O)CSC[C@@H](C(=O)NCC(N)=O)NC(=O)[C@H](CCCNC(=N)N)NC(=O)[C@H](C)N(C)C(=O)[C@H](Cc2ccc(-c3ccccc3)cc2)NC(=O)[C@H](Cc2c[nH]c3ccccc23)NC(=O)[C@H](CO)NC(=O)[C@H](Cc2c[nH]c3ccccc23)NC(=O)CN(C)C1=O [Example 1032] (HELM PEPTIDE1{[O=C(C[*:3])[*:2]].F.[meA].N.P.H.L.[Sar].W.S.W.[O=C([C@H](Cc1ccc(-c2ccccc2)cc1)N[*:1])[*:2]].[meA].R.C.G.[am]}$PEPTIDE1,PEPTIDE1,1:R3-15:R3$$$V2.0) | > 74.3 | > 30.5 | –
2 | CCCC[C@H]1C(=O)N(C)[C@@H](CCCC)C(=O)N[C@@H](CCCNC(=N)N)C(=O)N[C@H](C(=O)NCC(N)=O)CSCC(=O)N[C@@H](Cc2ccc(O)cc2)C(=O)N(C)[C@@H](C)C(=O)N[C@@H](CC(N)=O)C(=O)N2CCC[C@H]2C(=O)N[C@@H](Cc2cnc[nH]2)C(=O)N[C@@H](CCCCN)C(=O)N2C[C@H](O)C[C@H]2C(=O)N[C@@H](Cc2c[nH]c3ccccc23)C(=O)N[C@@H](CO)C(=O)N[C@@H](Cc2c[nH]c3ccccc23)C(=O)N1C [Example 5024] ({CH2CO}-Y[NMeA]NPHK[Hyp]WSW[NMeNle][NMeNle]RCG-NH2; thioether N-14) | – | 0.385 to 6.74 | 0.158 to 4.71
3 | CCCC[C@H]1C(=O)N2CCC[C@H]2C(=O)N[C@@H](CC(=O)O)C(=O)N[C@@H](C(C)C)C(=O)N(C)[C@@H](Cc2ccccc2)C(=O)N[C@@H](Cc2ccc(O)cc2)C(=O)N2CCC[C@H]2C(=O)N[C@@H](Cc2c[nH]c3ccccc23)C(=O)N[C@@H](Cc2ccc(O)cc2)C(=O)N[C@@H](CC(C)C)C(=O)N[C@H](C(=O)NCC(N)=O)CSCC(=O)N[C@@H](Cc2ccccc2)C(=O)N(C)[C@@H](Cc2ccccc2)C(=O)N1C [Example 3070] (HELM PEPTIDE1{[O=C(C[*:3])[*:2]].F.[meF].[CCCC[C@@H](C(=O)[*:2])N(C)[*:1]].P.D.V.[meF].Y.P.W.Y.L.C.G.[am]}$PEPTIDE1,PEPTIDE1,1:R3-14:R3$$$V2.0) | > 74.3 | > 30.5 | –
4 | CCCC[C@H]1C(=O)N2C[C@H](O)C[C@@H]2C(=O)N[C@@H](CC(=O)O)C(=O)N[C@@H](C(C)C)C(=O)N(C)[C@@H](Cc2ccccc2)C(=O)N[C@@H](Cc2ccc(O)cc2)C(=O)N(C)[C@@H](CCC(=O)O)C(=O)N[C@@H](Cc2c[nH]c3ccccc23)C(=O)N[C@@H](Cc2ccc(O)cc2)C(=O)N[C@@H](CC(C)C)C(=O)N[C@H](C(=O)NCC(N)=O)CSCC(=O)N[C@@H](Cc2cc(F)c(F)c(F)c2)C(=O)N(C)[C@@H](Cc2ccccc2)C(=O)N1C [Example 3182] ({CH2CO}-[Phe(3,4,5-F3)][NMeF][NMeNle][d(cisHyp)]DV[NMeF]Y[NMeE]WYLCG-NH2; thioether N-13) | 0.158 to 4.71 | 0.385 to 6.74 | –
5 | CCCC[C@H]1C(=O)N(C)CC(=O)N[C@@H](CC(=O)O)C(=O)N[C@@H](C(C)C)C(=O)N(C)[C@@H](Cc2ccccc2)C(=O)N[C@@H](Cc2ccc(O)cc2)C(=O)N(C)CC(=O)N[C@@H](Cc2c[nH]c3ccccc23)C(=O)N[C@@H](Cc2ccc(O)cc2)C(=O)N[C@@H](CC(C)C)C(=O)N[C@H](C(=O)NCC(N)=O)CSCC(=O)N[C@@H](Cc2ccccc2)C(=O)N[C@@H](Cc2cccc3ccccc23)C(=O)N1C [Example 3569] ({CH2CO}-F[1Nal][NMeNle][Sar]DV[NMeF]Y[Sar]WYLCG-NH2; thioether N-13) | – | > 30.5 | > 74.3
